From patent publication US20060292243A1, “Arsenic compounds for the treatment of the arsenic-sensitive blast-cell related diseases” (priority 2005, published 2006)
Values joined by “and” are separate entries in the source; they are usually repeats but may differ in a detail not shown here. Identical values can stand only once. “Also recorded” adds a separate entry of the source. Marks after values point to notes of the source that are not given here.

Assays:
[1] = tested on: Eotaxin; test: Eotaxin in BALF by ELISA, OVA-immunized mice; assay type: in vivo, BALB/c mice
Description: (§1) BALB/c mice (female, 6-8 weeks) were immunized with ovalbumin (OVA) at day 0, 14, 21 and 28. 38 days later, animals were injected with arsenic trioxide (ATO) i.p. for 7 days and antigen challenges with OVA were performed at day 42, 43, 44. At day 45, the airway enhanced pause (PenH) values were measured. 48 hours after the last antigen challenges, the mice were sacrificed, the trachea cannulated, and bronchoalveolar lavage (BAL) was performed by four repeated lavages with balanced salt solution (HBSS) injected into the lungs via the trachea. Total cell counts were performed with a hemocytometer after staining with trypan blue, and then cytospins were prepared, and a differential count of 300 cells per slide was performed. To obtain the absolute number of each leukocyte subtype in the lavage, the percentage of each cell type was multiplied by the total number of cells that were recovered from the bronchoalveolar lavage fluid (BALF). Eotaxin in the BALF was measured via ELISA. Four groups of mice were treated as Table 3.1.
(§2) Group A mice were challenged by PBS only and then treated by PBS, too. Group B mice were immunized by ovalbumin and then treated by PBS only. Group C mice were immunized by ovalbumin and then treated by arsenic trioxide in a dosage of 2.5 mg per kg for mice. Group D mice were challenged by ovalbumin as group B and C and then treated by arsenic trioxide in a dosage of 5 mg/kg.

[2] = tested on: OVA-specific IgE; test: OVA-specific IgE in serum of OVA-immunized mice; assay type: in vivo, BALB/c mice
Description: as §1
Group A mice were challenged by PBS only and then treated by PBS, too. Group B mice were immunized by ovalbumin and then treated by PBS only. […]
After antigen challenges, mice serum were prepared and OVA-specific IgE values in serum were detected for evidence of immunization.

[3] = tested on: BALB/c mice; test: Airway responsiveness to methacholine (PenH, pulmonary function test), OVA-immunized mice; assay type: in vivo
Description: as §1, §2
The mice were challenged with methacholine (Mch.) in an increasing concentration and the airway constriction of the mice was measured by using pulmonary function test, whereafter the data of Table 3.5 was obtained. […] The result is also consistent with the results of eotaxin and eosinophil in BALF.

[4] = tested on: Fibroblasts; test: DAPI staining of apoptotic bodies in fibroblasts; assay type: cell-based, human; details: 24 hours
Description: Fibroblasts were treated with different concentrations of ATO for 24 hours, cells were fixed and the apoptotic bodies were detected by DAPI staining.

[5] = tested on: NZB/NZW mice; test: Survival of SLE model mice; assay type: in vivo
Description: In vivo studies on the activity of arsenic compound were carried out by using an experimental animal model of human Systemic Lupus Erythematosus. NZB/NZW denotes the mouse strain that spontaneously develops an autoimmune syndrome having notable similarities to human Systemic Lupus Erythematosus. Autoimmune disease in NZB/NZW mice is characterized by antinuclear antibodies (IgG) production about 4 months of age, and glomerulonephritis with proteinuria is developed when at 9 months of age, and that is the major cause of death (uremia).
At 24 weeks of age, mice (3 groups) were treated 3 times per week with PBS (Group I as positive control), 2.5 mg/kg of As2O3 (Group II), or 5 mg/kg of As2O3 (Group III) administered intraperitoneally. The treatment was stopped at 28 weeks of age. Mice were observed daily for clinical signs of disease and for mortality and were bled every 4 weeks for determination of anti-DNA antibody production.
Coincident with ameliorating the clinical signs of severe immune complex nephritis, a dramatic prolongation of survival was observed.

[6] = tested on: Trypanosoma brucei; test: Anti-Trypanosoma test, viable cell count; assay type: cell-based
Description: Arsenic trioxide (Asadin®, 10 mg/10 ml/vial) was used to check the toxicity on the Trypanosoma brucei. Viable cell count was microscopically monitored. […] This is one third of recommended dosage of Melarsoprol (an Anti-Trypanosoma drug). Moreover, cytology observation noticed specific death morphology on cell toxicity. […] Further cytology examination on the death cells will be examined.

[7] = tested on: white blood cells in BALF; test: Differential white blood cell count in BALF, OVA-immunized mice; assay type: in vivo, BALB/c mice; details: for Lymphocyte concentration in BALF / Neutrophil concentration in BALF: mean; for Eosinophil concentration in BALF / Macrophage concentration in BALF: mean ± SD
Description: as §1, §2
The white blood cells in BALF were counted and differentiated. Every kind of white cell was increased in immunized groups when in comparison with the non-immunized group.

[8] = tested on: T lymphocytes (CD3+); test: Caspase-3 (Phiphilux) apoptosis within gated PBMC subsets; assay type: cell-based
Source text: 3. The detection of apoptosis within different subsets of PBMCs by the combination of mAb-fluorescein tandem staining and the treatment of Phiphilux through flowcytometry. Phiphilux is a substrate of caspase-3, composed of a specific oligo-peptide with its sequence subjected to functional caspase-3 cutting and, at each end of the peptide, is covalently coupled to two identical fluorophores.
Thus, the conclusion is that T lymphocytes are more sensitive to arsenic trioxide according the flow data.

[9] = tested on: cultured human fibroblasts; test: Cell cycle effect on cultured human fibroblasts (MTT, flowcytometry, western blot, promoter luciferase); assay type: cell-based; details: 1 to 10 μM, 24 hr
Source text: Arsenic trioxide has been approved for APL (acute promyelocytic leukemia) therapy, and though much work remains to be done on the application of arsenic trioxide and the mechanism of arsenic toxicity is not fully understood, several recent works pointed out the involvement of oxidative stress in arsenic-induced DNA damage in living cells may cause cell cycle arrest.

[10] = Group C: OVA, ATO 2.5 mg/kg i.p. for 7 days
[11] = Group D: OVA, ATO 5 mg/kg i.p. for 7 days

## arsenic trioxide
[1]; [10]
  eotaxin in BALF, Mean: 12.38* pg/ml
[1]; [11]
  eotaxin in BALF, Mean: 16.00 pg/mL
[1]; especially 2.5 mg/kg, group C vs group B p<0.05
  effect on eotaxin level after antigen challenge: diminish the eotaxin level
[2]; [10]
  OVA-specific IgE (SI.) in serum, Mean: 2.20 SI.
[2]; [11]
  OVA-specific IgE (SI.) in serum, Mean: 1.96 SI.
[3]; BALB/c mice, especially 2.5 mg/kg
  effect on airway hyper-reactivity / responsiveness to methacholine: does decrease the airway responsiveness; also recorded: successfully blocked
[3]; Group C: ATO 2.5 mg/kg, Mch 6.25 mg/ml, mean ± SD
  airway constriction by pulmonary function test (PenH): 3.62 ± 0.47
[3]; Group C: ATO 2.5 mg/kg, Mch 12.5 mg/ml, mean ± SD
  airway constriction by pulmonary function test (PenH): 7.83 ± 1.13
[3]; Group C: ATO 2.5 mg/kg, Mch 25 mg/ml, mean ± SD, p<0.05 vs Group B
  airway constriction by pulmonary function test (PenH): 10.15 ± 0.84
[3]; Group C: ATO 2.5 mg/kg, Mch 50 mg/ml, mean, p<0.05 vs Group B
  airway constriction by pulmonary function test (PenH): 9.83
[3]; Group D: ATO 5 mg/kg, Mch 6.25 mg/ml, mean ± SD
  airway constriction by pulmonary function test (PenH): 2.55 ± 0.35
[3]; Group D: ATO 5 mg/kg, Mch 12.5 mg/ml, mean ± SD
  airway constriction by pulmonary function test (PenH): 8.82 ± 0.88
[3]; Group D: ATO 5 mg/kg, Mch 25 mg/ml, mean ± SD
  airway constriction by pulmonary function test (PenH): 11.57 ± 1.52
[3]; Group D: ATO 5 mg/kg, Mch 50 mg/ml, mean
  airway constriction by pulmonary function test (PenH): 12.51
[4]; 1 μM
  apoptotic bodies by DAPI staining: no obvious apoptosis
[4]; 2.5 μM
  apoptotic bodies by DAPI staining: no obvious apoptosis
[4]; 5 μM
  apoptotic bodies by DAPI staining: obvious apoptotic bodies present
[4]; 10 μM
  apoptotic bodies by DAPI staining: both apoptosis and necrosis
[5]; 2.5 mg/kg, 0 weeks
  survival rate (%): 100%
[5]; 2.5 mg/kg, 22 weeks
  survival rate (%): 100%
[5]; 2.5 mg/kg, 31 weeks
  survival rate (%): 100%
[5]; 2.5 mg/kg, 38 weeks
  survival rate (%): 83.3%
[5]; 2.5 mg/kg, 39 weeks
  survival rate (%): 66.7%
[5]; 2.5 mg/kg, 40 weeks
  survival rate (%): 66.7%
[5]; 2.5 mg/kg, 41 weeks
  survival rate (%): 66.7%
[5]; 2.5 mg/kg, 42 weeks
  survival rate (%): 50%
[5]; 5 mg/kg, 0 weeks
  survival rate (%): 100%
[5]; 5 mg/kg, 22 weeks
  survival rate (%): 100%
[5]; 5 mg/kg, 31 weeks
  survival rate (%): 66.7%
[5]; 5 mg/kg, 38 weeks
  survival rate (%): 66.7%
[5]; 5 mg/kg, 39 weeks
  survival rate (%): 66.7%
[5]; 5 mg/kg, 40 weeks
  survival rate (%): 66.7%
[5]; 5 mg/kg, 41 weeks
  survival rate (%): 66.7%
[5]; 5 mg/kg, 42 weeks
  survival rate (%): 66.7%
[5]; after 43 weeks
  treated mice still alive: 50%
[6]; 0.1 mg/ml/day for 3 days, over 7 days
  killing effect on Trypanosoma brucei (viable cell count): complete killing effect
[6]; cultured Trypanosoma brucei
  death morphology on cytology observation: Cells became thread-like
  killing dosage compared with Melarsoprol: comparable, if not better
[6]; one dose regimen of 0.3 mg/ml
  killing potency versus 3 doses regimen: less killing potency at least one log difference
[7]; Group C: OVA, ATO 2.5 mg/kg
  Lymphocyte concentration in BALF: 37.0 ×1000 cells/ml
  Neutrophil concentration in BALF: 200.7 ×1000 cells/ml
  Eosinophil concentration in BALF: 28.6 ± 13.0 ×1000 cells/ml
  Macrophage concentration in BALF: 621.0 ± 199.6 ×1000 cells/ml
[7]; Group D: OVA, ATO 5 mg/kg
  Lymphocyte concentration in BALF: 28.7 ×1000 cells/ml
  Neutrophil concentration in BALF: 244.0 ×1000 cells/ml
  Eosinophil concentration in BALF: 33.2 ± 12.5 ×1000 cells/ml
  Macrophage concentration in BALF: 499.1 ± 131.6 ×1000 cells/ml
[7]; group C and D vs group B
  effect on eosinophil number in BALF: diminish significantly the eosinophil number
[8]; 1 μM
  Levels of T cell apoptosis (%) after 48 hr treatment: 36.1%
[8]; 5 μM
  Levels of T cell apoptosis (%) after 48 hr treatment: 96% and 96.2%
[9]
  effect on cell cycle of fibroblasts: cell cycle arrest especially in G2/M
